According to patent publication EP4563151A1, “PHARMACEUTICAL COMPOSITION COMPRISING KRAS G12D INHIBITOR” (Jiangsu Hengrui Pharmaceuticals Co., Ltd., priority 2022, dated 2024):

Key:
[1] = molecular target: KRAS protein subtype G12D (Homo sapiens, UniProt P01116, G12D); assay: Affinity for KRAS protein subtype G12D by SPR method (Biacore 8K); format: binding; conditions: biotinylated Avi-KRAS-G12D, single-cycle kinetic mode, 1:1 model
Procedure: (§1) Biotinylated Avi-KRAS-WT or Avi-KRAS-G12D was diluted to 20 µg/mL with a 1× HBS-P+ (Cat. # BR1006-71) buffer containing 100 mM MgCl2 and then allowed to flow through channel 2 of an SA (Cat. # BR1005-31) biosensor chip for 420 s to obtain a coupling level of approximately 5000-7000 RU. Then samples of the compound were injected sequentially in descending order for 120 s, followed by 720 s of dissociation. The testing was performed using a single-cycle kinetic mode. Reaction signals were detected in real time using a Biacore 8K instrument to obtain association and dissociation curves. After the testing was finished, data analysis was performed using Biacore 8K evaluation software. Data fitting was performed using a 1:1 model, and affinity data were obtained.

KRAS protein subtype WT = KRAS protein subtype WT (Homo sapiens, UniProt P01116); assay: Affinity for KRAS protein subtype WT by SPR method (Biacore 8K); format: binding; conditions: biotinylated Avi-KRAS-WT, single-cycle kinetic mode, 1:1 model
Sequence of KRAS protein subtype WT (P01116 1-188 isoform P01116-2): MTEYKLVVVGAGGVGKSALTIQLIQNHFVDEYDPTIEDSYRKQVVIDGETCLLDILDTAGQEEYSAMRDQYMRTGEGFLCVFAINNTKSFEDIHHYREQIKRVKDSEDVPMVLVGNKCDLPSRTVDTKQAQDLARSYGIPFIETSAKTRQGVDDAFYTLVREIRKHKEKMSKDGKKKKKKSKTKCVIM
Procedure: as §1

[2] = tested on: ERK phosphorylation in AGS cells; assay: Inhibition of ERK phosphorylation in AGS cells (HTRF method); format: cell-based; conditions: Homo sapiens, 1 h incubation with compound, phosphorylated ERK/total ERK ratio
Procedure: In the experiment, the inhibitory effect of the compound represented by formula I on the KRAS target was evaluated by assessing the inhibitory effect of the compound on ERK phosphorylation in cells and based on the IC50.
AGS cells (Nanjing Cobioer, CBP60476) were cultured in an RPMI1640 (Hyclone, SH30809.01) complete culture medium containing 10% fetal bovine serum. On the first day of the experiment, the AGS cells were seeded into a 96-well plate with a complete culture medium at a density of 40,000 cells/well, with each well containing 190 µL of a cell suspension. The plate was incubated overnight in a cell incubator at 37 °C with 5% CO2.
The next day, the test compound, serially diluted in a complete culture medium, was added at 10 µL/well. The final concentrations of the compound were 9 concentration points obtained by 5-fold serial dilution from 10 µM. A blank control containing 0.5% DMSO was set. The plate was incubated in a cell incubator at 37 °C with 5% CO2 for 1 h. […]
On the third day, the fluorescence values at an excitation wavelength of 337 nm and emission wavelengths of 665 nm and 620 nm were obtained using an ENVISION multimode microplate reader (PerkinElmer, ENVISION).
The IC50 value for the inhibitory activity of the compound was calculated using Graphpad Prism software based on the compound concentration and the phosphorylated ERK/total ERK ratio. […]

AGS cells = assay: Inhibition of 3D proliferation of AGS cells (CellTiter-Glo 3D); format: cell-based; conditions: Homo sapiens, 120 h incubation
Procedure: (§2) The inhibitory effect of the compound represented by formula I on the KRAS target was evaluated by assessing the inhibitory effect of the compound represented by formula I on the 3D proliferation of GP2d and AGS cells.
(§3) AGS cells (Nanjing Cobioer, CBP60476) were cultured in a complete culture medium, namely an RPMI1640 medium (Hyclone, SH30809.01) containing 10% fetal bovine serum (Corning, 35-076-CV). On the first day of the experiment, the AGS cells were seeded into a 96-well low-adsorption plate (Corning, CLS7007-24EA) with a complete culture medium at a density of 1000 cells/well, with each well containing 90 µL of a cell suspension. The plate was centrifuged at 2000 rpm for 5 min at room temperature and then incubated overnight in a cell incubator at 37 °C with 5% CO2.
(§4) The next day, the test compound, serially diluted in a complete culture medium, was added at 10 µL/well. The final concentrations of the compound for GP2d cells were 9 concentration points obtained by 3-fold serial dilution from 1 µM, and the final concentrations of the compound for AGS cells were 9 concentration points obtained by 3-fold serial dilution from 10 µM. A blank control containing 0.5% DMSO was set for both types of cells. The plates were incubated in a cell incubator at 37 °C with 5% CO2 for 120 h. […] The luminescence signal values were obtained using a multimode microplate reader (PerkinElmer, ENVISION). […]

GP2d cells = assay: Inhibition of 3D proliferation of GP2d cells (CellTiter-Glo 3D); format: cell-based; conditions: 120 h incubation
Procedure: as §2
as §3, with “GP2d” for “AGS”, “CBP60010)” for “CBP60476)”, “a DMEM/high glucose culture” for “an RPMI1640”, “SH30243.01)” for “SH30809.01)”
as §4, with “cells.” for “cells. The plates were incubated in a cell incubator at 37 °C with 5% CO2 for 120 h.”

Sequence of KRAS protein subtype G12D (P01116 1-188 isoform P01116-2 G12D): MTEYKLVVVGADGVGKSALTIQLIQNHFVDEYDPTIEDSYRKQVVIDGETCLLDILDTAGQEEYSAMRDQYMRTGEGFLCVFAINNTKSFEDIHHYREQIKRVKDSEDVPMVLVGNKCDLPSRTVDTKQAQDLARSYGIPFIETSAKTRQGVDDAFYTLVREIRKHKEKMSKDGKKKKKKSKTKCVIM

## CCc1c(F)ccc2cc(O)cc(-c3nc4c5c(nc(OC[C@@]67CCCN6C[C@H](F)C7)nc5c3F)N3C[C@H]5CC[C@H](N5)[C@H]3CO4)c12 [Compound represented by formula I, 5-Ethyl-6-fluoro-4-((5aS,6S,9R)-1-fluoro-12-(((2R,7aS)-2-fluorotetrahydro-1H-pyrrolizin-7a(5H)-yl)methoxy)-5a,6,7,8,9,10-hexahydro-5H-4-oxa-3,10a,11,13,14-pentaaza-6,9-methanonaphtho[1,8-ab]heptalen-2-yl)naphthalen-2-ol]
[1]
  Kd: 0.03 nM
KRAS protein subtype WT
  Kd: 1.54 nM
[2]
  IC50: 0.4 nM
AGS cells
  IC50: 5.8 nM
GP2d cells
  IC50: 0.9 nM
